Measurements: the NIST ThermoML archive (doi:10.1016/j.fluid.2012.06.028)
Numbers after ± are expanded uncertainties.

Test: xn = mol fraction of the nth substance listed
Conditions: Liquid, Vibrating tube method

CCCCCCCCCCCCCC [tetradecane] + CCCCCCCCCC
mass density [kg/m3]
Conditions	1000 kPa	2000 kPa	3000 kPa	4000 kPa	5000 kPa	6000 kPa	7000 kPa	8000 kPa	9000 kPa	10000 kPa
295 K, x2 = 0.5	746.3 ± 0.4	–	747.6 ± 0.4	748.3 ± 0.4	749 ± 0.4	749.7 ± 0.4	–	751.1 ± 0.4	751.7 ± 0.4	–
295 K, x2 = 0.75	739.2 ± 0.4	739.9 ± 0.4	740.7 ± 0.4	741.4 ± 0.4	742.1 ± 0.4	742.8 ± 0.4	743.5 ± 0.4	744.2 ± 0.4	745 ± 0.4	745.7 ± 0.4
295.5 K, x2 = 0.25	753.2 ± 0.4	753.9 ± 0.4	754.6 ± 0.4	755.3 ± 0.4	756 ± 0.4	756.7 ± 0.4	757.4 ± 0.4	758 ± 0.4	758.7 ± 0.4	759.4 ± 0.4
